MCC and MIC data for 4 molecules are collected here from US4966895A, “Cyclic monophosphates of purine and pyrimidine acyclonucleosides as anti-retroviral agents” (Merck & Co. Inc., priority 1989, dated 1990).

A short description of one data set: in vitro. In kind it is cell-based. As to conditions: sheep, choroid plexus cells. The procedure:
(§1) Visna virus is cultivated in low passage cells derived from the choroid plexus (SCP) of a newborn lamb. The choroid plexus is dissected from the newborn lamb, minced and diluted in minimum essential medium (MEM), containing 20% fetal bovine serum (FBS), 1 mM N 2-hydroxyethylpiperazine-N'-2-ethane sulfonic acid (HEPES), 50 μg/ml gentamicin at PH 7.4. After initial cultivation, cells are dispersed by addition of trypsin (0.25%) plus EDTA, split 1:2 and added to MEM+10% FBS, HEPES, gentamicin and reincubated. At approximately passage 4 there are adequate numbers of cells for freezing and storage in liquid nitrogen.
(§2) For antiviral assays, 0.2 ml SCP cells (0.7×10^5 cells/ml) are inoculated into wells of 96 well microtiter plates and incubated for 18-24 hours.
(§3) The medium is decanted from the cells, and drug and virus(~320-50% infectious doses) are added within 15 minutes. Each concentration of drug (serial two-fold or half-log dilutions) are added in 0.1 ml volumes to each of 6 wells. Visna virus is added (0.1 ml) to 4 wells for observation of virus inhibitory activity.
(§4) Virus free test medium is added to two wells (0.1 mL) for observation of drug cytotoxicity. Experimental controls include: cell control (cells with 0.2 mL medium) and virus controls (cells with 0.1 mL virus and 0.1 mL medium). The degree of CPE inhibition and drug cytotoxicity in comparison with virus and cell controls is observed microscopically after 6 days of incubation at 37° C. Fresh medium and drug dilutions are placed on the cells after 3 days of incubation. Virus CPE and drug cytotoxicity are scored on a 0-4 basis with 4 representing total cell destruction. The lowest concentration of drug producing ≥50% inhibition of virus-induced CPE is considered the minimum inhibitory concentration (MIC). The lowest concentration of drug producing a score of […] or visable alteration in cell morphology will be considered the minimum cytotoxic concentration (MCC). Using the observed percent CPE, the MIC will be calculated by linear regression analysis.

A further data set relates to visna virus. In words: Inhibition of visna virus-induced CPE in sheep choroid plexus (SCP) cells. To be noted: Visna-maedi virus, 144 h. In kind it is cell-based, strain 1514.
Source text: Activity of 9-[(2-hydroxy-1,3,2-dioxophosphorian-5-yl)oxymethyl]guanine P-oxide, sodium salt (2'-NOR-cGMP) against visna virus in sheep choroid plexus cells.
Visna virus, strain 1514, is a lentivirus of the retrovirus family. It was chosen because of its genetic and biologic similarity to the human immunodeficiency viruses (HIV). Since visna virus and the human immunodeficiency virus are closely related retroviruses, activity against the visna virus by a compound is felt to predict activity against the human immunodeficiency virus by the same compound. (See Visna Virus as an In Vitro Model for Human Immunodeficiency Virus and Inhibition by Ribavirin, Phosphonoformate, and 2',3'-Dideoxy-nucleosides, Frank K. B.; McKernan P.A.; Smith R.A.; Smee D.F.; Antimicrobiol Agents and Chemotherapy, Sept. 1987; Vol. 31, No. 9 Pg 1369-1374.) The virus has been cultivated and plaque purified in SCP cells fed with MEM, HEPES, gentamicin and 2% lamb serum.
as §1, §2, §3, §4

The mark [1] stands for this setting: MCC (minimum cytotoxic concentration), Range.
Setting [2] is: mean of individual values, ≥50% inhibition of virus-induced CPE, 6 days, 37° C, sheep choroid plexus cells, read-out: MIC (minimum inhibitory concentration), Mean.
The mark [3] stands for this setting: read-out: MIC (minimum inhibitory concentration), Mean.

≈ marks a conversion by molar mass, not a printed value. Structures can show the parent of a compound that is named as a salt. Where two headings read alike, the source gives them in different places.

The molecule `Nc1nc2c(ncn2COC2COP(=O)(O)OC2)c(=O)[nH]1` (centres unmarked) [2'-nor-cGMP, 9-[(2-hydroxy-1,3,2-dioxophosphorian-5-yl)oxymethyl]guanine P-oxide, sodium salt] yielded an MCC at 144 h in the data set “in vitro” (setting [1]) of 32 to 100 µg/mL. The MIC with visna virus (setting [2]) came out at 24 mg/L.

`Cc1cn([C@H]2C[C@H](N=[N+]=[N-])[C@@H](CO)O2)c(=O)[nH]c1=O` [Azidothymidine]: the MCC at 144 h worked out at 40 µg/mL in the data set “in vitro” (MCC (minimum cytotoxic concentration), Individual Values) and 40 µg/mL in the data set “in vitro” (setting [1]). The MIC came to 10 mg/L (≈ 37.4 µM) in the data set with visna virus (read-out: MIC (minimum inhibitory concentration), Individual Values) and 10 mg/L (≈ 37.4 µM) in the data set on visna virus (setting [3]).

`O=C(O)P(=O)(O)O` [Phosphonoformate]: the MCC at 144 h in “in vitro” (range of individual values, 6 days, 37° C, virus free, read-out: MCC (minimum cytotoxic concentration), Range) turned out to be 100 µg/mL; in the data set “in vitro” (lowest concentration producing a score of ≤1 or visible alteration in cell morphology, 6 days, 37° C, virus free, read-out: MCC (minimum cytotoxic concentration), Individual Values) it was 100 µg/mL. Moreover, the MIC in the data set with visna virus (setting [3]) was 57.4 mg/L (≈ 456 µM).

As for `NC(=O)c1ncn([C@@H]2O[C@H](CO)[C@@H](O)[C@H]2O)n1` [Virazole], the MCC at 144 h in the data set “in vitro” (setting [1]) lay in the range of 100 to 320 µg/mL. Also, the MIC in the data set with visna virus (setting [2]) came to 175 mg/L (≈ 718 µM).
